Experimental findings from article PMC10442599 (RSC Advances, 2023) are described below.

“Also recorded” adds a separate entry of the source.

What all share (format): biochemical
For experiment [1], the system named is AChE. Kind of experiment: Residual activity of AChE at 10 μM. Conditions: inhibitor 10 μM.
The target in experiment [2] is T1, Recombinant human MAO-A (Homo sapiens, UniProt P21397).
T1 sequence (P21397 1-527): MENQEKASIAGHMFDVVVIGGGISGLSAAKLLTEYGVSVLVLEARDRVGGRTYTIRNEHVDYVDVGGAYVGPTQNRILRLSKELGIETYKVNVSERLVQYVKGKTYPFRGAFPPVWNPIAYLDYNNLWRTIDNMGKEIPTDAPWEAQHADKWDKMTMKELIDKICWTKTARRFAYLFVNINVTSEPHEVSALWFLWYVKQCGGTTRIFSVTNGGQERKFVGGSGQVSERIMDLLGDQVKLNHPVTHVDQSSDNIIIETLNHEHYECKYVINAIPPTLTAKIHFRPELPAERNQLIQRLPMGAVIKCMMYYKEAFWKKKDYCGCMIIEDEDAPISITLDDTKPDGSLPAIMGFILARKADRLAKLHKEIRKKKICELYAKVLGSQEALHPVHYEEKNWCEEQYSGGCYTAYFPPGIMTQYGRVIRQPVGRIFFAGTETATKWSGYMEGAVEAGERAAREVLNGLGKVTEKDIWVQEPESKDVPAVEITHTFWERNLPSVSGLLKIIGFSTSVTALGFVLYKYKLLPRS
Kind of experiment: Inhibition of MAO-A. To be noted: for remaining activity at 10 µM: read-out: Residual activities at 10 μM (%) MAO-A.

The target in experiment [3] is T2, MAO-B (Homo sapiens, UniProt P27338).
T2 sequence (P27338 1-520): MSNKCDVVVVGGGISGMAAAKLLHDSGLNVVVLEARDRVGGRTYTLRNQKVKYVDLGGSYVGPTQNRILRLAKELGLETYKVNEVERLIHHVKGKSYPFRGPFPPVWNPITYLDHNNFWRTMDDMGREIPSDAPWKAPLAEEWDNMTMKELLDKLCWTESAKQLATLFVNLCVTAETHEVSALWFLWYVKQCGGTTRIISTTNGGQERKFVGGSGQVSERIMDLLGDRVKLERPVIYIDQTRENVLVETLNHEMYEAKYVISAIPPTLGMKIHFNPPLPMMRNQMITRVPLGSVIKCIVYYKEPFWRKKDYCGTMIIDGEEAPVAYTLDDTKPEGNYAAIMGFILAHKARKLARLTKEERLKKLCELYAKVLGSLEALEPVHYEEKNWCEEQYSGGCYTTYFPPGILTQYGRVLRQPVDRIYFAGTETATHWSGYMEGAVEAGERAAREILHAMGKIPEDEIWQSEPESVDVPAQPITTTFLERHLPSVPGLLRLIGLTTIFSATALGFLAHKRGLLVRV
The experiment can be described thus: Inhibition of MAO-B. Conditions: for SI (MAO), selectivity index = IC50 (MAO-A)/IC50(MAO-B): MAO-B over MAO-A; for remaining activity at 10 µM: read-out: Residual activities at 10 μM (%) MAO-B.

The subject of experiment [4] is BChE. The experiment can be described thus: Residual activity of BChE at 10 μM. Conditions: inhibitor 10 μM.
For experiment [5], the target named is T2, MAO-B. Kind of experiment: Reversibility of MAO-B inhibition by dialysis. To be noted: 2-times IC50.
Experiment [6] addresses T2, MAO-B. The experiment can be described thus: Enzyme kinetics of MAO-B inhibition.

For `O=C1c2ccccc2NC12CCCC2` [Compound 10a], the “Residual activities at 10 μM (%) AChE” value in experiment [1] was determined as 76.29 ± 6.64%. Moreover, in experiment [2], the IC50 is 20.8 ± 2.89 µM and the remaining activity at 10 µM worked out at 66.9 ± 2.47%. Also, in experiment [3], half-maximal inhibition (IC50) required 15.6 ± 2.33 µM; the “SI (MAO), selectivity index = IC50 (MAO-A)/IC50(MAO-B)” value (from here on “SI (MAO), selectivity index = IC50”) is recorded as 1.34; the remaining activity at 10 µM amounted to 57 ± 2.99%. Moreover, the “Residual activities at 10 μM (%) BChE” value in experiment [4] is 73.90 ± 4.90%.

For the compound `Cc1ccc2c(c1)C(=O)C1(CCCC1)N2` [Compound 10b], in experiment [1], the “Residual activities at 10 μM (%) AChE” value is reported as 83.39 ± 1.93%. Further, in experiment [2], the IC50 is more than 40 µM and the remaining activity at 10 µM came out at 72.2 ± 3.58%. In addition, in experiment [3], the IC50 is more than 40 µM and the remaining activity at 10 µM stood at 82.2 ± 9.06%. In experiment [4], the “Residual activities at 10 μM (%) BChE” value stood at 73.82 ± 7.10%.

For `Cc1ccc2c(c1)C(=O)C1(CCCC1)N2Cc1ccccc1` [Compound 11b], the “Residual activities at 10 μM (%) AChE” value in experiment [1] is 80.92 ± 5.07%. Moreover, in experiment [2], the IC50 is more than 40 µM and the remaining activity at 10 µM worked out at 79.6 ± 5.03%. For the same compound, in experiment [3], half-maximal inhibition (IC50) was put at 5.99 ± 0.36 µM and the remaining activity at 10 µM was 26.1 ± 2.75%. Besides, in experiment [4], the “Residual activities at 10 μM (%) BChE” value is recorded as 65.10 ± 0.74%.

Consider `O=C1c2cc(Br)ccc2N(Cc2ccccc2)C12CCCC2` [Compound 11d], for which the “Residual activities at 10 μM (%) AChE” value in experiment [1] is 81.90 ± 1.22%. In experiment [2], the IC50 is 14 ± 0.96 µM and the remaining activity at 10 µM stood at 62 ± 0.94%. Besides, in experiment [3], the IC50 stood at 2.81 ± 0.71 µM; the “SI (MAO), selectivity index = IC50” value was 5.00; the remaining activity at 10 µM was -16.2 ± 2.34%. Moreover, the “Residual activities at 10 μM (%) BChE” value in experiment [4] worked out at 71.19 ± 4.17%.

As for `O=C1c2ccccc2N(Cc2ccc(Br)cc2)C12CCCC2` [Compound 11f], in experiment [5], the “Reversibility of MAO-B inhibition” value is recorded as “reversible”. The Ki in experiment [6] was found to be 510 ± 23 nM. The “Type of MAO-B inhibition” value in experiment [6] (Lineweaver–Burk plot) is on record as “competitive inhibitor; also recorded: competitive inhibition”. For the same compound, the “Residual activities at 10 μM (%) AChE” value in experiment [1] stood at 68.95 ± 0.39%. Further, in experiment [2], the IC50 came out at 17.2 ± 1.14 µM and the remaining activity at 10 µM worked out at 67.9 ± 6.53%. In experiment [3], the IC50 turned out to be 1.44 ± 0.21 µM; the “SI (MAO), selectivity index = IC50” value is recorded as 11.91; the remaining activity at 10 µM came to 5.22 ± 1.06%. In addition, the “Residual activities at 10 μM (%) BChE” value in experiment [4] is on record as 72.06 ± 6.88%.

Regarding `O=C1c2ccccc2N(Cc2ccccc2Br)C12CCCC2` [Compound 11k], in experiment [1], the “Residual activities at 10 μM (%) AChE” value was 68.03 ± 3.68%. Further, in experiment [2], the IC50 came out at 9.01 ± 0.36 µM and the remaining activity at 10 µM was found to be 41.9 ± 4.56%. Moreover, in experiment [3], the IC50 was 14.3 ± 1.45 µM; the “SI (MAO), selectivity index = IC50” value was 0.63; the remaining activity at 10 µM worked out at 60.2 ± 1.44%. For the same compound, the “Residual activities at 10 μM (%) BChE” value in experiment [4] was found to be 51.41 ± 0.53%.
